According to patent US12180192B2, “Modulators of THR-β and methods of use thereof” (ALIGOS THERAPEUTICS, INC., priority 2019, dated 2024):

Experiments:
THR alpha = biological target: T1, THR alpha (Homo sapiens, UniProt P10827); assay: HEK293T THR alpha/RXR luciferase reporter assay (Assay 2); type: cell-based; conditions: Assay 2; for Emax: HEK-293T, Table 5, THRα, read-out: Activity category Assay 2 THRα (Emax); for EC50: Table 4, THR-alpha, read-out: Activity category Assay 2 (EC50, THR-alpha agonist activity)
T1 construct: expressed in transfected cells; host or cells: HEK293T (ATCC CRL-3216)
T1 sequence (P10827 1-410 isoform P10827-2): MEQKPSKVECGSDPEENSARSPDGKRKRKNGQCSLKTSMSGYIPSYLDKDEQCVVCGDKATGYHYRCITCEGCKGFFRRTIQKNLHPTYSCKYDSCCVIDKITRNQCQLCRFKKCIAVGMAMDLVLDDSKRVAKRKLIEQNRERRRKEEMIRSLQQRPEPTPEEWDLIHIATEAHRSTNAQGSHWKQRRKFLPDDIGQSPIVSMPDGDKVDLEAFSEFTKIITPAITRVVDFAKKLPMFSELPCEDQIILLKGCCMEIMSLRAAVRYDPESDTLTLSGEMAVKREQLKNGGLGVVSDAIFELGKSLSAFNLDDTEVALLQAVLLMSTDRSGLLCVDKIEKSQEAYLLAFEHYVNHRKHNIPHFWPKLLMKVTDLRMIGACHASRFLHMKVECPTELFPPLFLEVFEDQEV
T1 sequence (P19793 1-462 partner): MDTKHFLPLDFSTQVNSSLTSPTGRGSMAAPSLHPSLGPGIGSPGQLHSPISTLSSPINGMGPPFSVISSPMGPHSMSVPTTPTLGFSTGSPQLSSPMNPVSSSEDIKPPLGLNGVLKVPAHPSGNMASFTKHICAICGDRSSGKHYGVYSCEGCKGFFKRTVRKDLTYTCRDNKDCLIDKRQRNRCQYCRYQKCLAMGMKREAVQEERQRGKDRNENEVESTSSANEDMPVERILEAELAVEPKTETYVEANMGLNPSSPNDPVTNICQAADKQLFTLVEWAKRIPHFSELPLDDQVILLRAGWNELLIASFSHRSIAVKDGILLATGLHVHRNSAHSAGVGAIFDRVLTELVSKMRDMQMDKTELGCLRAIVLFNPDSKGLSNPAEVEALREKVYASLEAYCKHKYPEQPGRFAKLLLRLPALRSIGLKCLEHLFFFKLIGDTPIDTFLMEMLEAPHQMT
Description: (§1) HEK293T Reporter THRalpha/Beta/RXR Reporter Assay (Assay 2)
(§2) The purpose of this assay is to evaluate the effect of compounds on the thyroid hormone nuclear receptor pathway in HEK293T cells. To this end, HEK293T cells are transiently transfected with a luciferase reporter under the control of the thyroid response element (TRE), an RXR expression plasmid and either a THR alpha or THR beta expression plasmid. Transfected cells are stimulated with test compounds for 18-24 hours before activation of the thyroid hormone pathway is measured via a luciferase read-out.
(§3) Procedure. […] Ten five-fold dilutions of test compounds are prepared in DMSO and 30 nL are dispensed to the cells. […] Approximately 18-24 h after compound addition, 384 well plates are allowed to adjust to rt, 30 μL One-Glo (Promega catalog #E6120) is added to each well and luminescence is measured on a Perkin Elmer Enspire plate reader. Percent agonism is calculated using the following equation: 100× (sample-negative control)/(positive control-negative control).

[1] = biological target: T2, human thyroid receptor beta ligand-binding domain (LBD) (Homo sapiens, UniProt P10828); assay: TR-FRET thyroid receptor beta coactivator assay (THR biochemical assay, Assay 1); conditions: for EC50: THR-beta, TR-FRET coactivator assay, read-out: Activity category Assay 1 (EC50, THR-beta agonist); for Emax: Table 5, Assay 1, THRβ, read-out: Activity category Assay 1 THRβ (Emax)
T2 construct: purchased Invitrogen
T2 sequence (P10828 217-461 limits assumed): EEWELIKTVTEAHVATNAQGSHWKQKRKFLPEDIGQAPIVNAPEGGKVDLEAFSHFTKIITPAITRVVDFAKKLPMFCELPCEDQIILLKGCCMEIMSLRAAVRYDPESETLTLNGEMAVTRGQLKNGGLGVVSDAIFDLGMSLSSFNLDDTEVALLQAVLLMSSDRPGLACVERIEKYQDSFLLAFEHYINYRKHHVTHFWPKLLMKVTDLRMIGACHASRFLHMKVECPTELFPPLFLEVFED
Method in brief: (§4)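 Agonist-driven coactivator recruitment measured by TR-FRET: terbium anti-GST antibody (2 nM) bound to GST-LBD of TRβ or TRα (1 nM final, stated for β), with fluorescein SRC2-2 peptide at 200 nM. Compounds at 1% DMSO. Read after 1 h, room temperature, protected from light.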

[2] = biological target: T3, human thyroid receptor alpha ligand-binding domain (LBD) (Homo sapiens, UniProt P10827); assay: TR-FRET thyroid receptor alpha coactivator assay (THR biochemical assay, Assay 1); conditions: for EC50: Table 4, THR-alpha, read-out: Activity category Assay 1 (EC50, THR-alpha agonist activity); for Emax: Table 5, THRα, read-out: Activity category Assay 1 THRα (Emax)
T3 construct: purchased Invitrogen
Method in brief: as §4

THR beta = biological target: T4, THR beta (Homo sapiens, UniProt P10828); assay: HEK293T THR beta/RXR luciferase reporter assay (Assay 2); type: cell-based; conditions: for Emax: HEK-293T, Table 5, Assay 2, THRβ, read-out: Activity category Assay 2 THRβ (Emax); for EC50: THR-beta, HEK293T reporter assay, read-out: Activity category Assay 2 (EC50, THR-beta agonist)
T4 construct: expressed in transfected cells; host or cells: HEK293T (ATCC CRL-3216)
T4 sequence (P10828 1-461): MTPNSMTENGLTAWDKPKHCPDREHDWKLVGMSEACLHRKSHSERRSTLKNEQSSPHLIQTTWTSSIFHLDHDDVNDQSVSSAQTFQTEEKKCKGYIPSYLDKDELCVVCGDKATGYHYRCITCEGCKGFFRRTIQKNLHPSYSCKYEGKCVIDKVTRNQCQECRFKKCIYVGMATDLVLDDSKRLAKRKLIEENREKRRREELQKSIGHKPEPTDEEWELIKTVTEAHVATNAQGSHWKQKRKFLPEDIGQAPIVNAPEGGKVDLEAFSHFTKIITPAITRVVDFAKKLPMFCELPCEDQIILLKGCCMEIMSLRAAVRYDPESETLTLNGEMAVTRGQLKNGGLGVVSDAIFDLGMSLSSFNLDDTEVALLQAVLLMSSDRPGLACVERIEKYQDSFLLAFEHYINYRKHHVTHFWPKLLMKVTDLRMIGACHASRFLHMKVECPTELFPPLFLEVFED
T4 sequence (P19793 1-462 partner): T1 sequence (P19793 1-462 partner)
Description: as §1, §2, §3

| Emax (THR alpha) [%] | EC50 (THR alpha) [nM] | EC50 [1] [nM] | Emax [1] [%] | EC50 [2] [nM] | Emax [2] [%] | Emax (THR beta) [%] | EC50 (THR beta) [nM] | SMILES |
| --- | --- | --- | --- | --- | --- | --- | --- | --- |
| 50 to 75 | 50 to 250 | 50 to 250 | 50 to 75 | 250 to 1000 | 50 to 75 | > 75 | 50 to 250 | Cc1cc(-n2nc(N)c(=O)[nH]c2=O)cc(Cl)c1Oc1cc(C(C)C)c(=O)[nH]n1 [Compound 37, 6-Amino-2-[3-chloro-4-[(5-isopropyl-6-oxo-1H-pyridazin-3-yl)oxy]-5-methyl-phenyl]-4H-1,2,4-triazine-3,5-dione] |
| < 50 | < 50 | < 50 | 50 to 75 | 50 to 250 | 50 to 75 | 50 to 75 | < 50 | CC(C)c1cc(Cc2c(Cl)cc(-n3nc(N)c(=O)[nH]c3=O)cc2Cl)n[nH]c1=O [Compound 36, 6-Amino-2-[3,5-dichloro-4-[(5-isopropyl-6-oxo-1H-pyridazin-3-yl)methyl]-phenyl]-4H-1,2,4-triazine-3,5-dione] |
| < 50 | 1000 to 10000 | < 50 | < 50 | 50 to 250 | < 50 | 50 to 75 | 50 to 250 | Nc1nn(-c2cc(Cl)c(Oc3cc(C4CCc5ccccc54)c(=O)[nH]n3)c(Cl)c2)c(=O)[nH]c1=O (centres unmarked) [Compound 156, 6-amino-2-(3,5-dichloro-4-[[5-(2,3-dihydro-1H-inden-1-yl)-6-oxo-1H-pyridazin-3-yl]oxy]phenyl)-4H-1,2,4-triazine-3,5-dione] |
| < 50 | > 10000 | > 25000 | < 50 | > 25000 | < 50 | < 50 | > 10000 | Nc1nn(-c2cc(Cl)c(Oc3cc(-c4ccc5ncccc5c4)c(=O)[nH]n3)c(Cl)c2)c(=O)[nH]c1=O [Compound 128] |
| < 50 | 1000 to 10000 | 50 to 250 | < 50 | 1000 to 25000 | < 50 | > 75 | 250 to 1000 | C[C@H]1C[C@@H](c2cc(Oc3c(Cl)cc(-n4nc(N)c(=O)[nH]c4=O)cc3Cl)n[nH]c2=O)C1 (single isomer, unassigned) [Compound 86-B, 6-Amino-2-(3,5-dichloro-4-((5-((1s,3s)-3-methylcyclobutyl)-6-oxo-1,6-dihydropyridazin-3-yl)oxy)phenyl)-1,2,4-triazine-3,5(2H,4H)-dione] |
| > 75 | < 50 | < 50 | > 75 | < 50 | > 75 | > 75 | < 50 | CC1(C)C(=O)Nc2ccc(Oc3c(Cl)cc(-n4nc(N)c(=O)[nH]c4=O)cc3Cl)cc21 [Compound 82, 6-amino-2-[3,5-dichloro-4-[(3,3-dimethyl-2-oxo-1H-indol-5-yl)oxy]phenyl]-4H-1,2,4-triazine-3,5-dione] |
| < 50 | > 10000 | 1000 to 25000 | < 50 | > 25000 | < 50 | 50 to 75 | 250 to 1000 | CC1(C)CC(c2cc(Oc3c(Cl)cc(-n4nc(N)c(=O)[nH]c4=O)cc3Cl)n[nH]c2=O)CCO1 (centres unmarked) [Compound 76, 6-Amino-2-(3,5-dichloro-4-((5-(2,2-dimethyltetrahydro-2H-pyran-4-yl)-6-oxo-1,6-dihydropyridazin-3-yl)oxy)phenyl)-1,2,4-triazine-3,5(2H, 4H)-dione] |

Second part, the molecule before the results:

| SMILES | Emax (THR alpha) [%] | EC50 (THR alpha) [nM] | EC50 [1] [nM] | Emax [1] [%] | EC50 [2] [nM] | Emax [2] [%] | Emax (THR beta) [%] | EC50 (THR beta) [nM] |
| --- | --- | --- | --- | --- | --- | --- | --- | --- |
| Cc1cc(-n2nc(C#N)c(=O)[nH]c2=O)cc(C)c1Cc1cnc2[nH]cc(C(C)C)c2n1 [Compound 66, 2-[4-[(7-isopropyl-5H-pyrrolo[2,3-b]pyrazin-2-yl)methyl]-3,5-dimethyl-phenyl]-3,5-dioxo-1,2,4-triazine-6-carbonitrile] | 50 to 75 | 1000 to 10000 | 50 to 250 | 50 to 75 | 250 to 1000 | < 50 | > 75 | 1000 to 10000 |
| Nc1nn(-c2cc(Cl)c(Oc3ccc4c(c3)C3(CC3)C(=O)N4)c(Cl)c2)c(=O)[nH]c1=O [Compound 143] | > 75 | < 50 | < 50 | 50 to 75 | < 50 | > 75 | > 75 | < 50 |
| N#Cc1nn(-c2cc(Cl)c(Oc3ccc4[nH]cc(Cc5ccccc5)c4c3)c(Cl)c2)c(=O)[nH]c1=O [Compound 46, 2-[4-[(3-benzyl-1H-indol-5-yl)oxy]-3,5-dichlorophenyl]-3,5-dioxo-4H-1,2,4-triazine-6-carbonitrile] | < 50 | > 10000 | < 50 | < 50 | > 25000 | < 50 | 50 to 75 | 1000 to 10000 |
| O=c1cnn(-c2cc(Cl)c(Oc3cc(-c4ccc5ccccc5c4)c(=O)[nH]n3)c(Cl)c2)c(=O)[nH]1 [Compound 92] | < 50 | > 10000 | 50 to 250 | < 50 | 1000 to 25000 | < 50 | < 50 | 50 to 250 |
| N#Cc1nn(-c2cc(Cl)c(Oc3ccc4[nH]cc(CC5CC5)c4c3)c(Cl)c2)c(=O)[nH]c1=O [Compound 50, 2-(3,5-dichloro-4-[[3-(cyclopropylmethyl)-1H-indol-5-yl]oxy]phenyl)-3,5-dioxo-4H-1,2,4-triazine-6-carbonitrile] | > 75 | 250 to 1000 | < 50 | 50 to 75 | < 50 | 50 to 75 | > 75 | 50 to 250 |
| Cc1cc(-n2ncc(=O)[nH]c2=O)cc(C)c1Cc1cnc2[nH]cc(C(C)C)c2n1 [Compound 56, 2-(4-((7-isopropyl-5H-pyrrolo[2,3-b]pyrazin-2-yl)methyl)-3,5-dimethylphenyl)-1,2,4-triazine-3,5(2H,4H)-dione] | 50 to 75 | 50 to 250 | < 50 | < 50 | 250 to 1000 | < 50 | > 75 | 50 to 250 |
